Reference: patent US10550112B2, “Pyrimidines as EGFR inhibitors and methods of treating disorders” (Dana-Farber Cancer Institute, Inc., priority 2015, dated 2020)

What was measured:
Assay type in all cases: cell-based, Murine
[1] = molecular target: EGFR InsGY Ba/F3 cell line (Homo sapiens, UniProt P00533, DELINS770-770GY, cells depend on it); assay: Ba/F3 cell proliferation MTS assay, EGFR InsGY; conditions: EGFR InsGY (D770delinsGY) Ba/F3 cells, 72 hours
Protocol: (§1) Different EGFR exon 20 insertion mutations were introduced via site directed mutagenesis into full length EGFR using the Quick Change Site-Directed Mutagenesis kit (Stratagene; La Jolla, Calif.) according to the manufacturer's instructions. All constructs were confirmed by DNA sequencing. The constructs were shuttled into the retroviral vector JP1540 using the BD Creator™ System (BD Biosciences). […] Stable clones were obtained by selection in puromycin (2 μg/ml) and growth in IL-3 free media.
(§2) Murine Ba/F3 cells engineered to express mutant and wild type EGFR or HER2 protein were used to perform single drug screens. Cell viability was assessed after 72 hours of compound exposure using the colorimetric cell proliferation MTS assay kit (Promega).
(§3) The curves were fitted using a non-linear regression model with a sigmoidal dose response.

[2] = molecular target: EGFR InsSVD Ba/F3 cell line (Homo sapiens, UniProt P00533, DUP768-770, cells depend on it); assay: Ba/F3 cell proliferation MTS assay, EGFR InsSVD; conditions: EGFR InsSVD (D770_N771insSVD) Ba/F3 cells, 72 hours
Protocol: as §1, §2, §3

[3] = molecular target: HER2 wild type Ba/F3 cell line (Homo sapiens, UniProt P04626); assay: Ba/F3 cell proliferation MTS assay, HER2 wild type; conditions: HER2 wild type Ba/F3 cells, 72 hours
Protocol: as §2, §3

[4] = molecular target: EGFR InsASV Ba/F3 cell line (Homo sapiens, UniProt P00533, DUP767-769, cells depend on it); assay: Ba/F3 cell proliferation MTS assay, EGFR InsASV; conditions: EGFR InsASV (V769_D770insASV) Ba/F3 cells, 72 hours
Protocol: as §1, §2, §3

[5] = molecular target: EGFR wild type Ba/F3 cell line (Homo sapiens, UniProt P00533, cells depend on it, form not given); assay: Ba/F3 cell proliferation MTS assay, EGFR wild type; conditions: 72 hours
[6] = molecular target: HER2 InsYVMA Ba/F3 cell line (Homo sapiens, UniProt P04626, DUP772-775, cells depend on it); assay: Ba/F3 cell proliferation MTS assay, HER2 InsYVMA; conditions: 72 hours;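 further: murine Ba/F3 cells engineered to carry mutant HER2, viability read colorimetrically by MTS after 72 h of exposure, EC50 from sigmoidal non-linear regression of dose response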
Protocol: as §2, §3

Sequence of EGFR InsGY Ba/F3 cell line (P00533 with tags, fused parts or gaps DELINS770-770GY): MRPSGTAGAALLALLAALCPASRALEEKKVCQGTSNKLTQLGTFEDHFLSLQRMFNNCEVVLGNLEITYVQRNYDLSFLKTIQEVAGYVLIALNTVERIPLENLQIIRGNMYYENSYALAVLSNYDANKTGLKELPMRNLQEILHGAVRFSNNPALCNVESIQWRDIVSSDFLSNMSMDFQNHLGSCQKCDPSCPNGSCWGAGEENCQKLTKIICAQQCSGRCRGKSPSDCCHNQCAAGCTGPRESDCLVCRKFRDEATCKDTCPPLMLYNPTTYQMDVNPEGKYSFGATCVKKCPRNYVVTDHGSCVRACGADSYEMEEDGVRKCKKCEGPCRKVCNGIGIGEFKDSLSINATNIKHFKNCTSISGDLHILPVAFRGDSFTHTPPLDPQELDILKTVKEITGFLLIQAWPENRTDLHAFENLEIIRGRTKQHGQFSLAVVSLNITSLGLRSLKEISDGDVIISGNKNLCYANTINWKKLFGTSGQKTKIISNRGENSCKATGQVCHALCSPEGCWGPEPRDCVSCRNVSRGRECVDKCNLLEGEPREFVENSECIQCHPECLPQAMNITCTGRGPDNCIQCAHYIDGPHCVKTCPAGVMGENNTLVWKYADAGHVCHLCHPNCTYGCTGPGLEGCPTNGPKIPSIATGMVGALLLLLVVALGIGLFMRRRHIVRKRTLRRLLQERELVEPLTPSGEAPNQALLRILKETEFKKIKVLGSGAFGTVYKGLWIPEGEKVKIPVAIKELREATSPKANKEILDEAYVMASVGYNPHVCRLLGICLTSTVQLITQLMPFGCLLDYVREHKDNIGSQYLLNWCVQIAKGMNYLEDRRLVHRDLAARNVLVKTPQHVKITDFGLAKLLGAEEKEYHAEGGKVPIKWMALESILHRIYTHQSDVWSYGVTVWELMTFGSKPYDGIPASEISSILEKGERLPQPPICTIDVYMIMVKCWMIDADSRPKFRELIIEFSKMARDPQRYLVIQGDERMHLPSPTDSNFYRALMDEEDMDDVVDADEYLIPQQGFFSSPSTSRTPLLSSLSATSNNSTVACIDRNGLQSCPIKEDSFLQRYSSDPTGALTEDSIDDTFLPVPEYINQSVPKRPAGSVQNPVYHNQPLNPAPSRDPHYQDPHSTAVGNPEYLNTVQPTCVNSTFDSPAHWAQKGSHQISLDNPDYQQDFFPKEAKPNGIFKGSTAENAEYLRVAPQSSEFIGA
Sequence of EGFR wild type Ba/F3 cell line (P00533 whole entry, stated change not applied): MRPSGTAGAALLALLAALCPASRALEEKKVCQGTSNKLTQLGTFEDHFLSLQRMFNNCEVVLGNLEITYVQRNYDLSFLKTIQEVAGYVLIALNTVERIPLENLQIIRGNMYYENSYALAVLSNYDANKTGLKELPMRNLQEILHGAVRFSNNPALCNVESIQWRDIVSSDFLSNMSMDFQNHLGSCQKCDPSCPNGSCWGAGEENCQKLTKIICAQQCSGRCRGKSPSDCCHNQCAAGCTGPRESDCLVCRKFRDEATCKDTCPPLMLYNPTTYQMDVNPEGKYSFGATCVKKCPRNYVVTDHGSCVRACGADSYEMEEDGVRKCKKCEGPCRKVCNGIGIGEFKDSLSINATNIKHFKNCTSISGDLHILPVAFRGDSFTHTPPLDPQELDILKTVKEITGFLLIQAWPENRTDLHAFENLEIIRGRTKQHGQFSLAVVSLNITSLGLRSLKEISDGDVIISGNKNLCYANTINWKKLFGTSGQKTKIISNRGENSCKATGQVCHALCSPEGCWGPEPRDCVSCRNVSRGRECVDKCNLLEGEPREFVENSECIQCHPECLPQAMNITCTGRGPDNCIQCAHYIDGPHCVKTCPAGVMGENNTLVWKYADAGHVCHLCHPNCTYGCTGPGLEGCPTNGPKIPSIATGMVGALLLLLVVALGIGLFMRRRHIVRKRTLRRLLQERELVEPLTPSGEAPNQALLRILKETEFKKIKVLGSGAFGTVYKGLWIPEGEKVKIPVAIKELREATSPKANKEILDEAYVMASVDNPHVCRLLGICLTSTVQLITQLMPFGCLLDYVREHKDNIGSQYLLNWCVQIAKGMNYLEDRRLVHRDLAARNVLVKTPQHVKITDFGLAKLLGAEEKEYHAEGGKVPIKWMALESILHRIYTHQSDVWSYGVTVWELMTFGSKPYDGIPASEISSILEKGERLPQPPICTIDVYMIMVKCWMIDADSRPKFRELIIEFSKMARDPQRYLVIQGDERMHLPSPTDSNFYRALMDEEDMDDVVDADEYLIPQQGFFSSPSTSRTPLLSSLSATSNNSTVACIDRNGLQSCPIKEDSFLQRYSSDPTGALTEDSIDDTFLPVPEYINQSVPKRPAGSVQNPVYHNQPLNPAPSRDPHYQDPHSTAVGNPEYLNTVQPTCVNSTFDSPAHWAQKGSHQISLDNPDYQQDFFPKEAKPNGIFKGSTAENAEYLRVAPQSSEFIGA
Sequence of HER2 wild type Ba/F3 cell line (P04626 whole entry, stated change not applied): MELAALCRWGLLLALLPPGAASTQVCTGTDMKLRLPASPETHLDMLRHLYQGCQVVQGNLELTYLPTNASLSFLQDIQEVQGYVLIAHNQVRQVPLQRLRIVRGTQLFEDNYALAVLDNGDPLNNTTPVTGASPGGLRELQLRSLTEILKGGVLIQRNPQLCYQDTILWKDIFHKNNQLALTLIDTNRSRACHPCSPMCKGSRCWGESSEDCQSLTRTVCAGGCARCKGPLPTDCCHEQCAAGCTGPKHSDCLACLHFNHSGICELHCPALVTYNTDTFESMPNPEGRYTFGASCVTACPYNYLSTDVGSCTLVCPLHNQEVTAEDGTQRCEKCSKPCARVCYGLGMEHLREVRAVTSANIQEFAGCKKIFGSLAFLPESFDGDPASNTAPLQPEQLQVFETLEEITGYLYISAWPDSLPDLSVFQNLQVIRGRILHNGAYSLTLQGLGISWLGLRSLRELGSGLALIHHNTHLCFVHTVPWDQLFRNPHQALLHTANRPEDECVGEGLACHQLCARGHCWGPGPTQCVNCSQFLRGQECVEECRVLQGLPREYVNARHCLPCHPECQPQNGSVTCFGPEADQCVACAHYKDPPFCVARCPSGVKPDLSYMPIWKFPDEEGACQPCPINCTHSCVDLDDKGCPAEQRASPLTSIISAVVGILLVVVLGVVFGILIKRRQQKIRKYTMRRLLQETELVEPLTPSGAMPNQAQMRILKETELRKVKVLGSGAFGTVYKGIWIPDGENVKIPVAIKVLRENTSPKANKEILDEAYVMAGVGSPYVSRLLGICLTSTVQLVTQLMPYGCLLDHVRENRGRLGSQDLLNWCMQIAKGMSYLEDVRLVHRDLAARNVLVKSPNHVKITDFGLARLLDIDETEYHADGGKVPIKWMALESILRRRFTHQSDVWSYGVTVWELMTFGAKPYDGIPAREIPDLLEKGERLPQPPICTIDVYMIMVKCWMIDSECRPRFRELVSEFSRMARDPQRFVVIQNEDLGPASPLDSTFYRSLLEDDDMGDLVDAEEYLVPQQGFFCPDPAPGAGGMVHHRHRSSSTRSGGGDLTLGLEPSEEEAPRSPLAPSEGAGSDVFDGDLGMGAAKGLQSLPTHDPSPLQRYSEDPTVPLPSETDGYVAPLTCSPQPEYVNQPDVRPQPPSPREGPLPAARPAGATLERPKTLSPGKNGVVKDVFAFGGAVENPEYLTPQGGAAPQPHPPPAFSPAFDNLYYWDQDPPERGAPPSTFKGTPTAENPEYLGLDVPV
Sequence of EGFR InsASV Ba/F3 cell line (P00533 with tags, fused parts or gaps DUP767-769): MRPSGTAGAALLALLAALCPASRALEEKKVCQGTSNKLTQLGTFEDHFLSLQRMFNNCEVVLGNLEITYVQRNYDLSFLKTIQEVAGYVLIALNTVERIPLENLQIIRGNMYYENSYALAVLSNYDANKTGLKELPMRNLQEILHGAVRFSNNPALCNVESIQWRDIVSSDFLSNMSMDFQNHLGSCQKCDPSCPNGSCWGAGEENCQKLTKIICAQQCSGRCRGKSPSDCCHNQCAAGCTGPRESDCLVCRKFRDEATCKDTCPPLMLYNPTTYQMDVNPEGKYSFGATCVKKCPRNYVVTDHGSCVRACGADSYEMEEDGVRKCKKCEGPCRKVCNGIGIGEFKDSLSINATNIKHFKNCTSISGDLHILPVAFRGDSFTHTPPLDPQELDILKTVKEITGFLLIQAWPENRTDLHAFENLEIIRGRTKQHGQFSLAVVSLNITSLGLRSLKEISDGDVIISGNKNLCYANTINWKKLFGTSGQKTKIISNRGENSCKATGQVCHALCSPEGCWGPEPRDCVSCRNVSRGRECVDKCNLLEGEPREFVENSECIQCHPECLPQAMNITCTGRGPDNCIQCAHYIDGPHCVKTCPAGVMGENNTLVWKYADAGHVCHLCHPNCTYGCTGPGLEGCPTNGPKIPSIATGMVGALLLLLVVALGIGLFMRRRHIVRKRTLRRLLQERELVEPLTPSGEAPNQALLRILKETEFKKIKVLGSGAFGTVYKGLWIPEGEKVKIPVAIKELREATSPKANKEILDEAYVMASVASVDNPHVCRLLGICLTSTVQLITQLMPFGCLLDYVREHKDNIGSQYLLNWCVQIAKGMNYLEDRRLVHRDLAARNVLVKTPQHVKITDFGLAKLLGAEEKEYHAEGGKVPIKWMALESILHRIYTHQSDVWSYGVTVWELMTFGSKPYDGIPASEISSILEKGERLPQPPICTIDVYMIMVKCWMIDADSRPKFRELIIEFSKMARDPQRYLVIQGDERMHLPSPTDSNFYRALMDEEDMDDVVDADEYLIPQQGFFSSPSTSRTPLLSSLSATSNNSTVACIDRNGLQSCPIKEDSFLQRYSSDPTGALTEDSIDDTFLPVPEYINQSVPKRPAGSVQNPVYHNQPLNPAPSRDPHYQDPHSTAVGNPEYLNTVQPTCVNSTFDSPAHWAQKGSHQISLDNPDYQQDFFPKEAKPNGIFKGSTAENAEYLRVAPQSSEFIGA

| SMILES | EC50 [1] | EC50 [2] | EC50 [3] | EC50 [4] | EC50 [5] | EC50 [6] |
| --- | --- | --- | --- | --- | --- | --- |
| C=CC(=O)Nc1cccc(N(C(=O)OCc2ccc(F)nc2)c2ccnc(Nc3cnn(C)c3)n2)c1 [Compound I-13, (6-fluoropyridin-3-yl)methyl (3-acrylamidophenyl)(2-((1-methyl-1H-pyrazol-4-yl)amino)pyrimidin-4-yl)carbamate] | > 1000 nM | > 1000 nM | 100 to 500 nM | > 1000 nM | 100 to 500 nM | > 1000 nM |
| C=CC(=O)Nc1cccc(N(C(=O)OCc2csc3ccccc23)c2ccnc(Nc3cnn(C)c3)n2)c1 [Compound I-19, benzo[b]thiophen-3-ylmethyl (3-acrylamidophenyl)(2-((1-methyl-1H-pyrazol-4-yl)amino)pyrimidin-4-yl)carbamate] | > 1000 nM | > 1000 nM | 100 to 500 nM | > 1000 nM | 100 to 500 nM | > 1000 nM |
| C=CC(=O)Nc1cccc(N(C(=O)O[C@H](C)c2ccc(F)cc2)c2ccnc(Nc3cnn(C)c3)n2)c1 [Compound I-15, (R)-1-(4-fluorophenyl)ethyl (3-acrylamidophenyl)(2-((1-methyl-1H-pyrazol-4-yl)amino)pyrimidin-4-yl)carbamate] | < 100 nM | < 100 nM | < 100 nM | 100 to 500 nM | < 100 nM | 100 to 500 nM |
| C=CC(=O)Nc1cccc(N(C(=O)O[C@@H](C)c2ccc(F)cc2)c2ccnc(Nc3cnn(C)c3)n2)c1 [Compound I-17, (S)-1-(4-fluorophenyl)ethyl (3-acrylamidophenyl)(2-((1-methyl-1H-pyrazol-4-yl)amino)pyrimidin-4-yl)carbamate] | < 100 nM | < 100 nM | < 100 nM | 100 to 500 nM | < 100 nM | < 100 nM |
| C=CC(=O)Nc1cccc(N(C(=O)OCc2ccc(F)cc2F)c2ccnc(Nc3cnn(C)c3)n2)c1 [Compound I-29, 2,4-difluorobenzyl (3-acrylamidophenyl)(2-((1-methyl-1H-pyrazol-4-yl)amino)pyrimidin-4-yl)carbamate] | < 100 nM | < 100 nM | < 100 nM |  | < 100 nM | < 100 nM |

Results, then the compound that gave them:

| EC50 [1] | EC50 [2] | EC50 [3] | EC50 [4] | EC50 [5] | EC50 [6] | SMILES |
| --- | --- | --- | --- | --- | --- | --- |
| 100 to 500 nM | 100 to 500 nM | < 100 nM | 500 to 1000 nM | < 100 nM | 500 to 1000 nM | C=CC(=O)Nc1cccc(N(C(=O)O[C@@H](C)c2ccc(F)cc2)c2ccnc(Nc3ccn(C)n3)n2)c1 [Compound I-16, (S)-1-(4-fluorophenyl)ethyl (3-acrylamidophenyl)(2-((1-methyl-1H-pyrazol-3-yl)amino)pyrimidin-4-yl)carbamate] |
| < 100 nM | < 100 nM | < 100 nM | 100 to 500 nM | < 100 nM | < 100 nM | C=CC(=O)Nc1cccc(N(C(=O)OCc2ccccc2)c2ccnc(Nc3ccn(C)n3)n2)c1 [Compound I-1, benzyl (3-acrylamidophenyl)(2-((1-methyl-1H-pyrazol-3-yl)amino)pyrimidin-4-yl)carbamate] |
| 500 to 1000 nM | 500 to 1000 nM | 500 to 1000 nM | > 1000 nM | 100 to 500 nM |  | C=CC(=O)Nc1cccc(N(C(=O)O[C@H](C)c2ccc(F)cc2)c2ccnc(Nc3ccn(C)n3)n2)c1 [Compound I-14, (R)-1-(4-fluorophenyl)ethyl (3-acrylamidophenyl)(2-((1-methyl-1H-pyrazol-3-yl)amino)pyrimidin-4-yl)carbamate] |
| 100 to 500 nM | 100 to 500 nM | < 100 nM | 500 to 1000 nM | < 100 nM | 100 to 500 nM | C=CC(=O)Nc1cccc(N(C(=O)OCc2ccc(Cl)cc2)c2ccnc(Nc3cnn(C)c3)n2)c1 [Compound I-9, 4-chlorobenzyl (3-acrylamidophenyl)(2-((1-methyl-1H-pyrazol-4-yl)amino)pyrimidin-4-yl)carbamate] |
